US20260200849A1, “CATIONIC LIPIDS AND PREPARATION METHOD THEREOF” (RiboX Therapeutics HK Limited, priority 2024, published 2026)
Where “and” joins values, the source holds several entries; their conditions need not be identical. Equal entries are not always repeated. Where two headings read alike, the source gives them in different places.

How the values were obtained:
[1] = In vivo lipid metabolism by IV: ionizable lipid concentration in plasma and liver by LC-MS/MS; parameters: species or system Sprague-Dawley (SD) rats; conditions: IV 0.15 mg/kg RNA-LNPs (hEPO), male SD rats, individual animals N=3; for concentration at 6 h: male, Sprague-Dawley, rat, iv, 0.15 mg/kg
Method: In Vivo Lipid Metabolism by IV 7-8 week old, male Sprague-Dawley (SD) rats (N=3) were injected with 0.15 mg*kg−1 of RNA-LNPs encoding for hEPO by intravenous injection. At 1-/6-/96-/168-hours post injection, about 100 μL blood will be harvested and immediately added to the EDTAK2 containing tube. Place on wet ice and then centrifuged at 3000 g×5 min to obtain plasma. 30 μL plasma will be aliquoted to the 1.5 mL tubes. At terminal 6-/168-hours post injection, the rats will be euthanized with CO2, hemorrhaged immediately with cardiac puncture, respectively. The livers were harvested, weighed and washed with saline, then put into 50 ml centrifuge tube placed in liquid nitrogen, then transferred into wet ice, and finally stored at −80° C. immediately. Both plasma and liver samples were used for ionizable lipid concentration quantification by LC-MS/MS. The lower limit of quantitation (LLOQ) is 1 ng/mL in plasma or 11 ng/g in liver. BQL—Below the lower limit of quantitation (LLOQ).

IL-6 = test: In vivo tolerability by IV: serum IL-6 by Luminex; parameters: species or system C57BL/6J mice; conditions: Formulation No. 001, RNA No. 331, male C57BL/6J mice, 1.0 mg*kg/1 intravenous; for IL-6 at 2 h: 2 hours post injection; for IL-6 at 24 h: 24 hours post injection
Summary of the method: (§1)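 Male C57BL/6J mice aged 6-8 weeks (N=3) received 1.0 mg*kg−1 firefly-luciferase RNA-LNPs intravenously, with PBS as negative control. Serum taken at 2 and 24 h post-injection was assayed for MCP-1 and IL-6 by Luminex.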

Balb/c mice = test: In vivo expression by IV, 0.05 mg/kg luciferase RNA-LNPs, IVIS luminescence; conditions: Formulation No. 001, RNA No. 331; female Balb/c mice, 0.05 mg*kg−1 intravenous, 24-hours post injection
Summary of the method: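 Female Balb/c mice (7-8 weeks, N=3) received 0.05 mg*kg−1 firefly-luciferase RNA-LNPs IV. Luciferin (15 mg/ml) was given IP at 24 and 72 h post-dose for IVIS whole-body luminescence. A second run imaged whole body, liver and spleen at 24 h only.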

C57BL/6J mice = test: In vivo expression by IV, 1.0 mg/kg luciferase RNA-LNPs, whole-body and organ IVIS luminescence; conditions: Formulation No. 001, RNA No. 331; male C57BL/6J mice, 1.0 mg*kg−1 intravenous, 24-hours post injection
Summary of the method: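 Male C57BL/6J mice, 6-8 weeks old (N=3), received 1.0 mg*kg−1 firefly-luciferase RNA-LNPs IV. At 24 h post-dose, luciferin (15 mg/ml) was given IP, and whole-body, liver, spleen, kidney, small and large intestine luminescence was imaged by IVIS.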

Hep G2 cells [2] = test: In vitro toxicity: Hep G2 cell viability by CellTiter-Glo; assay type: cell-based; conditions: Formulation No. 001, RNA No. 331, 1 μg/mL RNA-LNPs, 72 hours post transfection, cell only = 100%
Method: 2E5 Hep G2 cells were transfected with 1 μg/mL RNA-LNPs. At 72 hours post transfection, cell viability (2-well repeat) was determined with the CellTiter-Glo® reagent kit, according to the kit protocol, measured by a luminometer. Cell only as control (100%).
The cell viability was calculated according to the following formula: […]

MCP-1 = test: In vivo tolerability by IV: serum MCP-1 by Luminex; parameters: species or system C57BL/6J mice; conditions: Formulation No. 001, RNA No. 331, male C57BL/6J mice, 1.0 mg*kg/1 intravenous; for MCP-1 at 2 h: 2 hours post injection; for MCP-1 at 24 h: 24 hours post injection
Summary of the method: as §1

[3] = RNA encapsulation efficacy (EE %) by Quant-IT Ribogreen kit; assay type: physicochemical; conditions: LNP
Method: (§2) The LNP size and polydispersity index (PDI), determined by dynamic light scattering (DLS), and zeta potential were measured by a Zetasizer machine (Malvern). RNA concentration and encapsulation efficacy (EE %) were analyzed by the Quant-IT Ribogreen kit by calculating the percentage encapsulation at 100%—(RNA-LNPs/RNA-LNPs with Triton X-100).

Hep G2 cells [4] = test: In vitro expression: luciferase activity in Hep G2 cells transfected with RNA-LNPs; assay type: cell-based; conditions: Formulation No. 001, RNA No. 331 (firefly-luciferase), 100 ng/mL RNA-LNPs, 72 hours post transfection
Method: 2E5 Hep G2 cells were transfected with 100 ng/mL of RNA-LNPs encoding for firefly-luciferase. At 72 hours post transfection, the cells were washed and lysed. The luciferase expression (2-well repeat) was determined in the cell lysates with the luciferase assay reagent kit (Promega), according to the kit protocol, luciferase activity was measured by a luminometer.

[5] = LNP size and polydispersity index (PDI) by dynamic light scattering (Zetasizer); assay type: physicochemical; conditions: for Size (nm): Formulation No. 001 (Ionizable lipid:DSPC:cholesterol:DMG-PEG2000 = 50:10:38.5:1.5, N/P 6), RNA No. 331
Method: as §2

[6] = liver, 6 h post injection, read-out: Liver (ng/g), ionizable lipid concentration
[7] = Formulation No. 001, RNA No. 019 (hEPO)
[8] = Formulation No. 001, RNA No. 331

Row | Liver (ng/g), ionizable lipid concentration ([1]; 6 h post injection) | Plasma (ng/mL), ionizable lipid concentration ([1]; 6 h post injection) | concentration at 6 h [1, 6] [ng/g] | EE (%) [3, 7] [%] | EE (%) [3, 8] [%] | Structure (SMILES) | Plasma (ng/mL), ionizable lipid concentration ([1]; 1 h post injection) | IL-6 at 2 h (IL-6) [pg/mL] | IL-6 at 24 h (IL-6) [pg/mL] | Liver (p/s) (Mean) (Balb/c mice) | Spleen (p/s) (Mean) (Balb/c mice) | Whole body (p/s) (Mean) (Balb/c mice) | Kidney (p/s) (C57BL/6J mice) | Large intestine (p/s) (C57BL/6J mice) | Liver (p/s) (C57BL/6J mice) | Small intestine (p/s) (C57BL/6J mice) | Spleen (p/s) (C57BL/6J mice) | Whole body (p/s) (C57BL/6J mice) | In vitro cell viability (%) (Mean) (Hep G2 cells [2]) | MCP-1 at 2 h (MCP-1) [pg/mL] | MCP-1 at 24 h (MCP-1) [pg/mL] | other results
1 | 703 ng/g and 396 ng/g | 11.9 ng/mL and 22 ng/mL | 668 | 93.99 | 91.27 | CCCCC/C=C\CCOC(=O)CCCCCOC(=O)C(COC(=O)NCCN1CCCCCC1)NC(=O)OCCCCCCCCOC(=O)C(CCCCCC)CCCCCCCC (stereo not shown) [Lipid 955] | 6059 ng/mL and 23590 ng/mL and 15983 ng/mL | 1140 | 7.13 | 7.00E+08 | 9.11E+07 | 2.15E+09 | 4.80E+07 | 3.44E+08 | 1.98E+09 | 6.59E+08 | 2.12E+09 | 4.06E+09 | 95.28 | 3350 | 580 | concentration at 6 h ([1]; plasma, 6 h post injection, read-out: Plasma (ng/mL), ionizable lipid concentration): 17 ng/mL; In vitro Expression (Mean) (Hep G2 cells [4]): 2.53E+05; Size (nm) [5]: 81.86 nm; PDI [5, 7]: 0.14; Size [5, 7]: 90.32 nm; PDI [5, 8]: 0.03
2 | 29536 ng/g and 35435 ng/g | 298 ng/mL and 2.59 ng/mL and 3.41 ng/mL | 29400 | 94.15 | 98.24 | CCCCC/C=C\C/C=C\CCCCCCCCOC(=O)NC(COC(=O)NCCN1CCCCCC1)C(=O)OCCCCCC(=O)OCC(CCCCCCCC)CCCCCCCCCC (stereo not shown) [Lipid 911] | 7622 ng/mL and 5572 ng/mL and 3130 ng/mL | 28.5 | 4.43 | 5.42E+08 | 1.27E+08 | 1.17E+09 | 3.75E+07 | 8.42E+07 | 7.97E+09 | 6.47E+08 | 8.51E+08 | 7.27E+09 | 81.84 | 2000 | 254 | Liver (ng/g), ionizable lipid concentration ([1]; 168 h post injection): 890 ng/g and 1331 ng/g and 618 ng/g; In vitro Expression (Mean) (Hep G2 cells [4]): 5.01E+05; Size (nm) [5]: 64.33 nm; PDI [5, 7]: 0.05; Size [5, 7]: 58.16 nm; PDI [5, 8]: 0.03
